The NIST ThermoML archive (doi:10.1016/j.jct.2016.10.023)

Assay: xn = mol fraction of the nth substance listed
Conditions: Constant-volume piezometry

CCCCC [pentane] + CCCO
Liquid
Conditions | mass density [kg/m3]
305.05 K, x1 = 0.8 | 631.08
312.65 K, x1 = 0.8 | 623.57
317.85 K, x1 = 0.5 | 663.63
324.25 K, x1 = 0.8 | 611.04
334.25 K, x1 = 0.8 | 601.01
351.05 K, x1 = 0.5 | 631.49
353.55 K, x1 = 0.8 | 575.9
368.45 K, x1 = 0.5 | 611.87
372.15 K, x1 = 0.8 | 553.38
381.85 K, x1 = 0.2 | 663.76
383.55 K, x1 = 0.5 | 592.03
394.65 K, x1 = 0.8 | 524.7
396.15 K, x1 = 0.2 | 640.78
410.15 K, x1 = 0.8 | 499.43
410.75 K, x1 = 0.5 | 551.97
415.75 K, x1 = 0.2 | 618.67
425.55 K, x1 = 0.8 | 469.31
429.15 K, x1 = 0.2 | 598.54
431.15 K, x1 = 0.5 | 522.22

Conditions | mass density [kg/m3]
308.15 K, 2402 kPa, Liquid, x1 = 0.8 | 630.94
313.15 K, 157 kPa, Liquid, x1 = 0.8 | 623.55
313.15 K, 6022 kPa, Liquid, x1 = 0.8 | 630.7
314.15 K, 765 kPa, Liquid, x1 = 0.8 | 623.51
318.15 K, 3615 kPa, Liquid, x1 = 0.8 | 623.33
323.15 K, 3447 kPa, Liquid, x1 = 0.5 | 663.38
323.15 K, 7107 kPa, Liquid, x1 = 0.8 | 623.1
323.15 K, 13373 kPa, Liquid, x1 = 0.8 | 630.24
325.15 K, 801 kPa, Liquid, x1 = 0.8 | 611.01
333.15 K, 5935 kPa, Liquid, x1 = 0.8 | 610.66
333.15 K, 9686 kPa, Liquid, x1 = 0.5 | 662.92
333.15 K, 14195 kPa, Liquid, x1 = 0.8 | 622.65
333.15 K, 20785 kPa, Liquid, x1 = 0.8 | 629.77
335.15 K, 769 kPa, Liquid, x1 = 0.8 | 600.98
338.15 K, 2550 kPa, Liquid, x1 = 0.8 | 600.85
343.15 K, 5592 kPa, Liquid, x1 = 0.8 | 600.65
343.15 K, 12414 kPa, Liquid, x1 = 0.8 | 610.23
343.15 K, 16000 kPa, Liquid, x1 = 0.5 | 662.46
343.15 K, 21183 kPa, Liquid, x1 = 0.8 | 622.2
343.15 K, 28234 kPa, Liquid, x1 = 0.8 | 629.31
351.15 K, 441 kPa, Liquid, x1 = 0.5 | 631.49
353.15 K, 1647 kPa, Liquid, x1 = 0.5 | 631.4
353.15 K, 11601 kPa, Liquid, x1 = 0.8 | 600.23
353.15 K, 18747 kPa, Liquid, x1 = 0.8 | 609.8
353.15 K, 22340 kPa, Liquid, x1 = 0.5 | 661.99
353.15 K, 28151 kPa, Liquid, x1 = 0.8 | 621.75
353.15 K, 35636 kPa, Liquid, x1 = 0.8 | 628.84
355.15 K, 1219 kPa, Liquid, x1 = 0.8 | 575.84
358.15 K, 2713 kPa, Liquid, x1 = 0.8 | 575.73
363.15 K, 5237 kPa, Liquid, x1 = 0.8 | 575.54
363.15 K, 7726 kPa, Liquid, x1 = 0.5 | 630.97
363.15 K, 17738 kPa, Liquid, x1 = 0.8 | 599.81
363.15 K, 25314 kPa, Liquid, x1 = 0.8 | 609.37
363.15 K, 28606 kPa, Liquid, x1 = 0.5 | 661.53
363.15 K, 35183 kPa, Liquid, x1 = 0.8 | 621.29
363.15 K, 42979 kPa, Liquid, x1 = 0.8 | 628.38
372.65 K, 854 kPa, Liquid, x1 = 0.8 | 553.36
373.15 K, 1058 kPa, Liquid, x1 = 0.8 | 553.35
373.15 K, 3137 kPa, Liquid, x1 = 0.5 | 611.68
373.15 K, 10414 kPa, Liquid, x1 = 0.8 | 575.16
373.15 K, 13490 kPa, Liquid, x1 = 0.5 | 630.54
373.15 K, 23787 kPa, Liquid, x1 = 0.8 | 599.4
373.15 K, 31687 kPa, Liquid, x1 = 0.8 | 608.94
373.15 K, 34882 kPa, Liquid, x1 = 0.5 | 661.07
373.15 K, 42247 kPa, Liquid, x1 = 0.8 | 620.84
378.15 K, 5874 kPa, Liquid, x1 = 0.5 | 611.47
383.15 K, 1487 kPa, Liquid, x1 = 0.2 | 663.69
383.15 K, 4567 kPa, Liquid, x1 = 0.5 | 602.79
383.15 K, 5590 kPa, Liquid, x1 = 0.8 | 552.99
383.15 K, 8687 kPa, Liquid, x1 = 0.5 | 611.26
383.15 K, 15678 kPa, Liquid, x1 = 0.8 | 574.78
383.15 K, 19194 kPa, Liquid, x1 = 0.5 | 630.11
383.15 K, 29885 kPa, Liquid, x1 = 0.8 | 598.99
383.15 K, 38107 kPa, Liquid, x1 = 0.8 | 608.51
384.15 K, 1047 kPa, Liquid, x1 = 0.5 | 592.01
393.15 K, 941 kPa, Liquid, x1 = 0.5 | 579.06
393.15 K, 5707 kPa, Liquid, x1 = 0.5 | 591.66
393.15 K, 8491 kPa, Liquid, x1 = 0.2 | 663.21
393.15 K, 10012 kPa, Liquid, x1 = 0.5 | 602.39
393.15 K, 10151 kPa, Liquid, x1 = 0.8 | 552.64
393.15 K, 14096 kPa, Liquid, x1 = 0.5 | 610.86
393.15 K, 20747 kPa, Liquid, x1 = 0.8 | 574.4
393.15 K, 25038 kPa, Liquid, x1 = 0.5 | 629.68
393.15 K, 36012 kPa, Liquid, x1 = 0.8 | 598.57
393.15 K, 44637 kPa, Liquid, x1 = 0.8 | 608.08
395.15 K, 1157 kPa, Liquid, x1 = 0.8 | 524.69
398.15 K, 2324 kPa, Liquid, x1 = 0.8 | 524.59
403.15 K, 905 kPa, Gas, x1 = 0.8 | 22.65
403.15 K, 4215 kPa, Liquid, x1 = 0.8 | 524.43
403.15 K, 4306 kPa, Liquid, x1 = 0.2 | 640.49
403.15 K, 5622 kPa, Liquid, x1 = 0.5 | 578.69
403.15 K, 10647 kPa, Liquid, x1 = 0.5 | 591.27
403.15 K, 14687 kPa, Liquid, x1 = 0.8 | 552.29
403.15 K, 15313 kPa, Liquid, x1 = 0.2 | 662.74
403.15 K, 15471 kPa, Liquid, x1 = 0.5 | 601.98
403.15 K, 19586 kPa, Liquid, x1 = 0.5 | 610.45
403.15 K, 25962 kPa, Liquid, x1 = 0.8 | 574.02
403.15 K, 30841 kPa, Liquid, x1 = 0.5 | 629.25
403.15 K, 42147 kPa, Liquid, x1 = 0.8 | 598.16
413.15 K, 944 kPa, Gas, x1 = 0.8 | 22.64
413.15 K, 2137 kPa, Liquid, x1 = 0.5 | 551.89
413.15 K, 2268 kPa, Liquid, x1 = 0.8 | 499.34
413.15 K, 7884 kPa, Liquid, x1 = 0.8 | 524.12
413.15 K, 10313 kPa, Liquid, x1 = 0.5 | 578.32
413.15 K, 10612 kPa, Liquid, x1 = 0.2 | 640.04
413.15 K, 15843 kPa, Liquid, x1 = 0.5 | 590.88
413.15 K, 19245 kPa, Liquid, x1 = 0.8 | 551.94
413.15 K, 21025 kPa, Liquid, x1 = 0.5 | 601.58
413.15 K, 22059 kPa, Liquid, x1 = 0.2 | 662.26
413.15 K, 24988 kPa, Liquid, x1 = 0.5 | 610.04
413.15 K, 31136 kPa, Liquid, x1 = 0.8 | 573.65
413.15 K, 36585 kPa, Liquid, x1 = 0.5 | 628.82
414.15 K, 712 kPa, Gas, x1 = 0.5 | 15.6
415.15 K, 715 kPa, Gas, x1 = 0.5 | 15.6
416.15 K, 1229 kPa, Liquid, x1 = 0.2 | 618.66
416.15 K, 1374 kPa, Gas, x1 = 0.8 | 36.88
423.15 K, 737 kPa, Gas, x1 = 0.5 | 15.59
423.15 K, 982 kPa, Gas, x1 = 0.8 | 22.63
423.15 K, 1418 kPa, Gas, x1 = 0.8 | 36.86
423.15 K, 4884 kPa, Liquid, x1 = 0.2 | 618.37
423.15 K, 5404 kPa, Liquid, x1 = 0.8 | 499.05
423.15 K, 5815 kPa, Liquid, x1 = 0.5 | 551.55
423.15 K, 11608 kPa, Liquid, x1 = 0.8 | 523.8
423.15 K, 14921 kPa, Liquid, x1 = 0.5 | 577.95
423.15 K, 16915 kPa, Liquid, x1 = 0.2 | 639.59
423.15 K, 20842 kPa, Liquid, x1 = 0.5 | 590.5
423.15 K, 23598 kPa, Liquid, x1 = 0.8 | 551.59
423.15 K, 26392 kPa, Liquid, x1 = 0.5 | 601.18
423.15 K, 28950 kPa, Liquid, x1 = 0.2 | 661.79
423.15 K, 30447 kPa, Liquid, x1 = 0.5 | 609.63
423.15 K, 36411 kPa, Liquid, x1 = 0.8 | 573.27
426.15 K, 1900 kPa, Liquid, x1 = 0.8 | 469.29
432.15 K, 2018 kPa, Liquid, x1 = 0.5 | 522.19
433.15 K, 760 kPa, Gas, x1 = 0.5 | 15.59
433.15 K, 1023 kPa, Gas, x1 = 0.8 | 22.62
433.15 K, 1472 kPa, Gas, x1 = 0.8 | 36.85
433.15 K, 2403 kPa, Liquid, x1 = 0.5 | 522.16
433.15 K, 3158 kPa, Liquid, x1 = 0.2 | 598.39
433.15 K, 3619 kPa, Liquid, x1 = 0.8 | 469.11
433.15 K, 8493 kPa, Liquid, x1 = 0.8 | 498.76
433.15 K, 9460 kPa, Liquid, x1 = 0.5 | 551.22
433.15 K, 10196 kPa, Liquid, x1 = 0.2 | 617.96
433.15 K, 15352 kPa, Liquid, x1 = 0.8 | 523.48
433.15 K, 19645 kPa, Liquid, x1 = 0.5 | 577.58
433.15 K, 23135 kPa, Liquid, x1 = 0.2 | 639.15
433.15 K, 26095 kPa, Liquid, x1 = 0.5 | 590.11
433.15 K, 28096 kPa, Liquid, x1 = 0.8 | 551.24
433.15 K, 31893 kPa, Liquid, x1 = 0.5 | 600.78
